Assay: Solubility of topiramate in the first organic solvent (xylene, toluene)
Assay type: physicochemical
Experimental: It was further observed that the yield during the precipitation step can be improved when using xylene instead of toluene in the present invention. This is attributed to the fact that topiramate is less soluble in xylene compared to toluene. The solubility of topiramate in xylene was detected to be 0.0025 mg per mg xylene whereas the solubility of topiramate in toluene is 0.008 mg per mg solvent. Therefore, when using xylene as the first solvent in the present invention, the loss of topiramate in the mother liquid can be reduced.

SMILES: CC1(C)O[C@@H]2[C@@H](CO[C@@]3(COS(N)(=O)=O)OC(C)(C)O[C@@H]23)O1 [topiramate, 2,3:4,5-bis-O-(1-methylethylidene)-β-D-fructopyranose sulfamate]
- solubility of topiramate in toluene (solvent toluene): 0.008 mg per mg solvent
- solubility of topiramate in xylene (solvent xylene): 0.0025 mg per mg xylene
